Source: US9988400B2 (Genentech, Inc., priority 2013, dated 2018)

Target: T1, HEK cells stably transfected with tetracycline inducible hNR1 and hNR2A (Homo sapiens, UniProt Q05586+Q12879)
T1 construct: expressed in transfected cells; host or cells: HEK cells, stably transfected, tetracycline/doxycycline inducible
Assay: Assay 1: Cell-Based Assay, cytosolic calcium response to positive allosteric modulators (with 30 μM glycine and 300 nM L-glutamate, EC30)
Conditions: for EC50: cytosolic calcium response, with 30 μM glycine and 300 nM L-glutamate (EC30), — = no plateau was reached; for Max %: responses scaled relative to 100 μM L-glutamate maximal response (100%) and 0 μM L-glutamate (0%)
In short: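 Cells induced 24 h with 7.5 μg mL^−1 doxycycline plus 500 μM (+)-ketamine, loaded 60 min at 37 °C with calcium dye in Mg-free HBSS (1.8 mM Ca, probenecid, 10 μM (+)-ketamine, pH 7.15). Peak RFU over 5 min after compound addition, scaled to 100 μM L-glutamate (100%) and 0 μM (0%); four-parameter Hill fit for EC50, max % if no plateau.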

T1 sequence (Q12879 23-1464, other chains not shown): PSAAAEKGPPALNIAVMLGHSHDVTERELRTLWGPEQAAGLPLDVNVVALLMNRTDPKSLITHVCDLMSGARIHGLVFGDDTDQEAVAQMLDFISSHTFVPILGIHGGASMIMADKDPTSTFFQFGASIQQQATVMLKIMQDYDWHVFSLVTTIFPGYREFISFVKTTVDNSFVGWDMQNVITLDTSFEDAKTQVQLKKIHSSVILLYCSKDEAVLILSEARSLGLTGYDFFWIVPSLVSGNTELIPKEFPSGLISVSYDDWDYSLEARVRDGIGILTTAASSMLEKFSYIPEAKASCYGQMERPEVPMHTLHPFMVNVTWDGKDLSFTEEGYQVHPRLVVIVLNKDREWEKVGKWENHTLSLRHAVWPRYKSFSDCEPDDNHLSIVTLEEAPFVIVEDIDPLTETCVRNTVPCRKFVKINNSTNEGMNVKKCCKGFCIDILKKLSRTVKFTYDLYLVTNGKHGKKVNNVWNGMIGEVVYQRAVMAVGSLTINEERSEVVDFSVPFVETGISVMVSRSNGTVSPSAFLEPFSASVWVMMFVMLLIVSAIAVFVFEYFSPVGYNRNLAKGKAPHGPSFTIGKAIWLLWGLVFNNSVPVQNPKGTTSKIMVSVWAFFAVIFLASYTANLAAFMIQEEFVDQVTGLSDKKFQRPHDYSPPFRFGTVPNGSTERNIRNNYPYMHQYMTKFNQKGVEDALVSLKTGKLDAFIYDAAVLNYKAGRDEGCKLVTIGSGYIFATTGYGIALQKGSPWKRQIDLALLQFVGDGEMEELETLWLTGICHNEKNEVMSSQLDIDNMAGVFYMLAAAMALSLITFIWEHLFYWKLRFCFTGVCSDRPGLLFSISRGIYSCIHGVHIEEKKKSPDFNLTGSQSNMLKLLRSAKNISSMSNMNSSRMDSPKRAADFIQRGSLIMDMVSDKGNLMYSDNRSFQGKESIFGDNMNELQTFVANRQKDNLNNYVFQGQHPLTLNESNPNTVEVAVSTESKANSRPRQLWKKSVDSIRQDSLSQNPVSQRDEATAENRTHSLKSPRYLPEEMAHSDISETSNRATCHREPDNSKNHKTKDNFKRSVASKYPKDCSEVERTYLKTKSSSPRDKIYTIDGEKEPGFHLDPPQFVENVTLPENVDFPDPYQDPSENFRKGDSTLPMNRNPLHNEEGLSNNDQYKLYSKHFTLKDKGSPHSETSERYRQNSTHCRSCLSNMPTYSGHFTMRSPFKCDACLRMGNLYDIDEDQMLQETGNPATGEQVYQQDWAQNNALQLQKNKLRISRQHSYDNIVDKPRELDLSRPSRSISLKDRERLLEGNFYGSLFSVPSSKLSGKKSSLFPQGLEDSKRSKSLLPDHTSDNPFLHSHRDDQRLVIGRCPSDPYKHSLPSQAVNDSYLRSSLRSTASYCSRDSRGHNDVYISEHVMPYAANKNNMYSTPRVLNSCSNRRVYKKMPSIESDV

EC50 (Table 2) | Max % (Table 2) | EC50 (Table 3) | Structure (SMILES)
0.547 µM | 137% | – | CCN(Cc1cc(=O)n2c(CCC#N)c(C)sc2n1)c1ccc(F)cc1 [Example 13.7, 3-[7-[(N-ethyl-4-fluoro-anilino)methyl]-2-methyl-5-oxo-thiazolo[3,2-a]pyrimidin-3-yl]propanenitrile]
– | 76.5% | – | CCNC(=O)c1csc2nc(Cc3cccc(C#N)c3F)c(F)c(=O)n12 [Example 21.26, 7-(3-cyano-2-fluorobenzyl)-N-ethyl-6-fluoro-5-oxo-5H-thiazolo[3,2-a]pyrimidine-3-carboxamide]
– | 72.1% | – | CCN(Cc1cc(=O)n2c(CN3CCCC3)c(C)sc2n1)c1ccc(F)cc1 [Example 10.9, 7-[(N-ethyl-4-fluoro-anilino)methyl]-2-methyl-3-(pyrrolidin-1-ylmethyl)thiazolo[3,2-a]pyrimidin-5-one]
– | 48.2% | – | Cc1sc2nc(Cn3ncc4ccccc43)cc(=O)n2c1-c1cncnc1 [Example 15.34, 7-((1H-indazol-1-yl)methyl)-2-methyl-3-(pyrimidin-5-yl)-5H-thiazolo[3,2-a]pyrimidin-5-one]
29.1 µM | – | – | CC(=O)c1c(C)sc2nc(Cc3cccc(C#N)c3F)cc(=O)n12 [Example 27.10, 3-((3-acetyl-2-methyl-5-oxo-5H-thiazolo[3,2-a]pyrimidin-7-yl)methyl)-2-fluorobenzonitrile]
0.837 µM | 165% | – | CCN(Cc1cc(=O)n2c(C(C)(C)O)csc2n1)c1ccc(F)cc1 [Example 10.19, 7-[(N-ethyl-4-fluoro-anilino)methyl]-3-(1-hydroxy-1-methyl-ethyl)thiazolo[3,2-a]pyrimidin-5-one]
– | 117% | – | CCN(Cc1cc(=O)n2c(CN3CCC34COC4)c(C)sc2n1)c1ccc(F)cc1 [Example 10.21, 7-[(N-ethyl-4-fluoro-anilino)methyl]-2-methyl-3-(6-oxa-1-azaspiro[3.3]heptan-1-ylmethyl)thiazolo[3,2-a]pyrimidin-5-one]
6.7 µM | – | – | CCNC(=O)c1c(C)sc2nc(Cc3cccc(C(F)(F)F)c3F)cc(=O)n12 [Example 21.12, N-ethyl-7-(2-fluoro-3-(trifluoromethyl)benzyl)-2-methyl-5-oxo-5H-thiazolo[3,2-a]pyrimidine-3-carboxamide]
– | 46% | – | CNC(=O)c1c(C)sc2nc(Cc3ccc(F)c(F)c3)cc(=O)n12 [Example 21.54, 7-[(3,4-difluorophenyl)methyl]-N,2-dimethyl-5-oxo-thiazolo[3,2-a]pyrimidine-3-carboxamide]
0.122 µM | 205% | – | CCN(Cc1cc(=O)n2c(C3CC3C#N)c(C)sc2n1)c1ccc(F)cc1 (stereo not shown) [Example 14.2, 2-(7-[[ethyl(4-fluorophenyl)amino]methyl]-2-methyl-5-oxo-5H-[1,3]thiazolo[3,2-a]pyrimidin-3-yl)cyclopropane-1-carbonitrile]

Second part, the molecule before the results:

Structure (SMILES) | EC50 (Table 2) | Max % (Table 2) | EC50 (Table 3)
CCN(Cc1cc(=O)n2c3c(sc2n1)CCOC3)c1ccc(F)cc1 [Example 8.9, 2-[(N-ethyl-4-fluoro-anilino)methyl]-8,9-dihydro-6H-pyrano[3,4]thiazolo[1,4-a]pyrimidin-4-one] | 11.1 µM | 124% | –
CCNC(=O)c1c(C(F)(F)F)sc2nc(Cc3cccc(C(F)(F)F)c3F)cc(=O)n12 [compound 40, N-ethyl-7-[[2-fluoro-3-(trifluoromethyl)phenyl]methyl]-5-oxo-2-(trifluoromethyl)thiazolo[3,2-a]pyrimidine-3-carboxamide] | – | – | 1.32 µM
Cc1sc2nc(COc3ccc(F)cc3)cc(=O)n2c1C(=O)NCC(F)(F)F [Example 1.5, 7-(4-Fluorophenoxymethyl)-2-methyl-5-oxo-N-(2,2,2-trifluoroethyl)-5H-[1,3]thiazolo[3,2-a]pyrimidine-3-carboxamide] | 23 µM | 51.4% | –
CCN(Cc1cc(=O)n2c(N3CCCC3)c(C)sc2n1)c1ccc(F)cc1 [Example 6.3, 7-((ethyl(4-fluorophenyl)amino)methyl)-2-methyl-3-(pyrrolidin-1-yl)-5H-thiazolo[3,2-a]pyrimidin-5-one] | 10.1 µM | 91.9% | –
Cc1sc2nc(COc3ccc(F)cc3)cc(=O)n2c1C1CC1CF (stereo not shown) [Example 4.28, 3-(2-(fluoromethyl)cyclopropyl)-7-((4-fluorophenoxy)methyl)-2-methyl-5H-thiazolo[3,2-a]pyrimidin-5-one] | 3.4 µM | 89% | –
Cc1sc2nc(Cc3cccc(C(F)(F)F)c3F)cc(=O)n2c1C(=O)NC(C)C [compound 106, 7-[[2-fluoro-3-(trifluoromethyl)phenyl]methyl]-N-isopropyl-2-methyl-5-oxo-thiazolo[3,2-a]pyrimidine-3-carboxamide] | – | – | 3.4 µM
CCNC(=O)c1c(C)sc2nc(Cn3nc(C(F)(F)F)cc3C)cc(=O)n12 [compound 26, N-ethyl-2-methyl-7-[[5-methyl-3-(trifluoromethyl)pyrazol-1-yl]methyl]-5-oxo-thiazolo[3,2-a]pyrimidine-3-carboxamide] | – | – | 4.82 µM
CCN(Cc1cc(=O)n2c(C3CCOCC3)c(C)sc2n1)c1ccc(F)cc1 [Example 9.4, 7-[(N-ethyl-4-fluoro-anilino)methyl]-2-methyl-3-tetrahydropyran-4-yl-thiazolo[3,2-a]pyrimidin-5-one] | 9.2 µM | 114% | –
Cc1sc2nc(Cn3nc(Cl)cc3C(F)(F)F)cc(=O)n2c1C(C)(C)O [compound 109, 7-[[3-chloro-5-(trifluoromethyl)pyrazol-1-yl]methyl]-3-(1-hydroxy-1-methyl-ethyl)-2-methyl-thiazolo[3,2-a]pyrimidin-5-one] | – | – | 0.734 µM
CCNC(=O)c1c(C(F)(F)F)sc2nc(Cn3nc(C(F)(F)F)cc3C)cc(=O)n12 [compound 45, N-ethyl-7-[[5-methyl-3-(trifluoromethyl)pyrazol-1-yl]methyl]-5-oxo-2-(trifluoromethyl)thiazolo[3,2-a]pyrimidine-3-carboxamide] | – | – | 1.25 µM
CCN(Cc1cc(=O)n2c(-c3ccsc3)c(C)sc2n1)c1ccc(F)cc1 [Example 5.47, 7-((ethyl(4-fluorophenyl)amino)methyl)-2-methyl-3-(thiophen-3-yl)-5H-thiazolo[3,2-a]pyrimidin-5-one] | 0.976 µM | 151% | –
C=C(C)c1c(C)sc2nc(Cn3nc(C(F)(F)F)cc3Cl)cc(=O)n12 [compound 135, 7-[[5-chloro-3-(trifluoromethyl)pyrazol-1-yl]methyl]-3-isopropenyl-2-methyl-thiazolo[3,2-a]pyrimidin-5-one] | – | – | 0.397 µM
CCN(Cc1cc(=O)n2c(/C=C/C(N)=O)c(C)sc2n1)c1ccc(F)cc1 [compound 261, (E)-3-[7-[(N-ethyl-4-fluoro-anilino)methyl]-2-methyl-5-oxo-thiazolo[3,2-a]pyrimidin-3-yl]prop-2-enamide] | – | – | 1.54 µM
CNC(=S)c1c(C)sc2nc(COc3ccc(F)cc3)cc(=O)n12 [Example 1.17, 7-(4-Fluorophenoxymethyl)-N,2-dimethyl-5-oxo-5H-[1,3]thiazolo[3,2-a]pyrimidine-3-carbothioamide] | 4 µM | 68.6% | –
CCN(Cc1cc(=O)n2c(C3CC3)c(C)sc2n1)c1ccc(F)cc1 [Example 5.26, 3-cyclopropyl-7-[(N-ethyl-fluoro-anilino)methyl]-2-methyl-thiazolo[3,2-a]pyrimidin-5-one] | 0.563 µM | 149% | –
O=c1cc(Cn2nc(Cl)cc2C(F)(F)F)nc2sc(C(F)(F)F)c(-c3cccnc3)n12 [compound 173, 7-[[3-chloro-5-(trifluoromethyl)pyrazol-1-yl]methyl]-3-(3-pyridyl)-2-(trifluoromethyl)thiazolo[3,2-a]pyrimidin-5-one] | – | – | 24.7 µM
CCN(Cc1cc(=O)n2c(N(C)C)c(C)sc2n1)c1ccc(F)cc1 [Example 6.2, 3-(dimethylamino)-7-((ethyl(4-fluorophenyl)amino)methyl)-2-methyl-5H-thiazolo[3,2-a]pyrimidin-5-one] | 5 µM | 121% | –
O=c1cc(COc2ccc(F)cc2)nc2scc([C@@H]3C[C@H]3CO)n12 (relative stereo) [Example 4.14, 7-((4-fluorophenoxy)methyl)-3-(trans-2-(hydroxymethyl)cyclopropyl)-5H-thiazolo[3,2-a]pyrimidin-5-one] | 7.8 µM | 93% | –
CCNC(=O)c1c(Cl)sc2nc(Cc3cccc(C#N)c3F)cc(=O)n12 [compound 69, 2-chloro-7-[(3-cyano-2-fluoro-phenyl)methyl]-N-ethyl-5-oxo-thiazolo[3,2-a]pyrimidine-3-carboxamide] | – | – | 11.2 µM
N#Cc1cccc(Cc2cc(=O)n3c(C4CC4C(F)(F)F)c(C(F)(F)F)sc3n2)c1F (stereo not shown) [compound 88, 2-fluoro-3-[[5-oxo-2-(trifluoromethyl)-3-[2-(trifluoromethyl)cyclopropyl]thiazolo[3,2-a]pyrimidin-7-yl]methyl]benzonitrile] | – | – | 3.7 µM
Cc1sc2nc(Cn3nc(C(F)(F)F)cc3Cl)cc(=O)n2c1C(=O)C(C)C [compound 177, 7-[[5-chloro-3-(trifluoromethyl)pyrazol-1-yl]methyl]-2-methyl-3-(2-methylpropanoyl)thiazolo[3,2-a]pyrimidin-5-one] | – | – | 0.123 µM
CCNC(=O)c1c(C)sc2nc(Cc3cccc(OC)c3F)cc(=O)n12 [compound 5, N-ethyl-7-[(2-fluoro-3-methoxy-phenyl)methyl]-2-methyl-5-oxo-thiazolo[3,2-a]pyrimidine-3-carboxamide] | – | – | 15.1 µM
CCNC(=O)c1c(C)sc2nc(Cn3nc(C)cc3C(F)(F)F)cc(=O)n12 [compound 27, N-ethyl-2-methyl-7-[[3-methyl-5-(trifluoromethyl)pyrazol-1-yl]methyl]-5-oxo-thiazolo[3,2-a]pyrimidine-3-carboxamide] | – | – | 10.6 µM
